The record followed here is patent US20240417410A1, “TRICYCLIC COMPOUNDS FOR THE TREATMENT OF CANCER” (Hoffmann-La Roche Inc., priority 2023, published 2024).

Broadly, the IC50 is the point on the concentration scale where inhibition reaches its midpoint. Read a high IC50 as lower potency.

One assay deals with KRAS G12C-BRAF complex (Homo sapiens (Human), UniProt P01116+P62937, G12C). In words: KRAS-BRAF with CYPA (500 nM) interaction assay (TR-FRET, Example 136). Format: biochemical. The following applies: KRAS G12C-BRAF disruption. (In general: In TR-FRET formats the signal depends on donor and acceptor labels being close together.)
In the next assay the test system is AGS cells (KRAS G12D). The assay can be described thus: Cell viability assay (Cell Counting Kit-8, 3-day). The class given is cell-based, human. The conditions noted are these: 72 hrs incubation. The gist of the method: (§1)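 After overnight attachment, cells received compounds (0.5% DMSO) for 72 hrs; viability was then quantified with CCK-8, reading OD450 minus OD650, and IC50 values were obtained from a 4-parameter concentration-response fit.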

For a further assay, the system named is SW620 cells (KRAS G12V). The assay can be described thus: Cell viability assay (Cell Counting Kit-8, 3-day). The class given is cell-based, human. The conditions noted are these: SW620, 72 hrs incubation. The method, boiled down:
as §1

The test system of assay [1] is NCI-H358 cells (KRAS G12C). In words: Cell viability assay (Cell Counting Kit-8, 3-day). Format: cell-based, human. The conditions noted are these: NCI-H358, 72 hrs incubation. The method, boiled down:
as §1
(In general: Formazan colour is commonly taken as a measure of viable cells.)

Assay [2] relates to phosphorylation of ERK, KRAS G12D in AGS cells. In words: pERK inhibition assay. Format: cell-based. The method, boiled down:
(§2)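 NCI-H358 (KRAS G12C), AGS (G12D) and SW620 (G12V) cells plated overnight, then treated with compound for 4 h in 0.5% DMSO. After fixing and methanol permeabilisation, phospho-ERK was detected by in-cell ELISA (HRP/TMB, OD450). IC50 from a 4-parameter sigmoidal fit.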

In assay [3] the test system is phosphorylation of ERK, KRAS G12C in NCI-H358 cells. The assay can be described thus: pERK inhibition assay. The class given is cell-based. The method, boiled down:
as §2

Assay [4] has as its system phosphorylation of ERK, KRAS G12V in SW620. The assay can be described thus: pERK inhibition assay. Format: cell-based. The following applies: SW620 cells. The gist of the method: as §2

Chain of KRAS G12C-BRAF complex (P01116-2 other isoform, or with tags, fused parts or gaps G12C): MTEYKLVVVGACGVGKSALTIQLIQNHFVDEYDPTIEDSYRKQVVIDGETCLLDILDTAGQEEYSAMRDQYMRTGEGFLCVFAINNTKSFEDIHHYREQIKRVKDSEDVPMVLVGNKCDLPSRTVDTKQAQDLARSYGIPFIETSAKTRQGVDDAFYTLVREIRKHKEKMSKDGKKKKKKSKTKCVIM
Chain of KRAS G12C-BRAF complex (P62937 whole entry): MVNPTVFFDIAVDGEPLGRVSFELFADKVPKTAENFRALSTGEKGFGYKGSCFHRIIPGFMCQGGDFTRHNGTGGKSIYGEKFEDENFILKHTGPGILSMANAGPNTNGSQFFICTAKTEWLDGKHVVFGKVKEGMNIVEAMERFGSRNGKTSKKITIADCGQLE

In the case of `CO[C@@H](C)c1ncc(N2CCN(C)CC2)cc1-c1c2c3cc(cc4c3n1CCC4)-c1csc(n1)C[C@H](NC(=O)[C@@H]1C[C@H]1c1cncc(C)c1)C(=O)N1CCC[C@H](N1)C(=O)OCC(C)(C)C2` (atropisomer, axis not shown; (M)) [Example 120, (1R,2R)-N-[(7S,13S)-(20M)-20-[2-[(1S)-1-methoxyethyl]-5-(4-methylpiperazin-1-yl)-3-pyridyl]-17,17-dimethyl-8,14-dioxo-15-oxa-4-thia-9,21,30,31-tetrazahexacyclo[23.3.1.1^2,5.1^9,13.0^19,27.0^21,26]hentriaconta-1 (28),2,5 (31), 19,25 (29),26-hexaen-7-yl]-2-(5-methyl-3-pyridyl)cyclopropanecarboxamide], the IC50 came out at 20.4 nM on KRAS G12C-BRAF complex; 2.2 nM in the assay with AGS cells (KRAS G12D) (Homo sapiens, 72 h); 0.4 nM with SW620 cells (KRAS G12V) (Homo sapiens, SW-620); 1.4 nM in assay [1] (Homo sapiens, NCI-H358, 72 h); 2.9 nM in assay [2] (Homo sapiens, AGS, 4 h); 1.1 nM in assay [3] (Homo sapiens, NCI-H358, 4 h). For the same molecule, in assay [4] (Homo sapiens, SW-620, 4 h), the IC50 came to 0.9 nM.
Take `CO[C@@H](C)c1ncc(N2CCN(CCN3CCCC3=O)CC2)cc1-c1c2c3cc(cc4c3n1CCC4)-c1csc(n1)C[C@H](NC(=O)[C@H]1[C@H](C)[C@@H]1C)C(=O)N1CCC[C@H](N1)C(=O)OCC(C)(C)C2` (atropisomer, axis not shown; (M)) [Example 121, (1r,2R,3S)-N-[(7S,13S)-(20M)-20-[2-[(1S)-1-methoxyethyl]-5-[4-[2-(2-oxopyrrolidin-1-yl)ethyl]piperazin-1-yl]-3-pyridyl]-17,17-dimethyl-8,14-dioxo-15-oxa-4-thia-9,21,30,31-tetrazahexacyclo[23.3.1.1^2,5.1^9,13.0^19,27.0^21,26]hentriaconta-1 (28),2,5 (31), 19,25 (29),26-hexaen-7-yl]-2,3-dimethyl-cyclopropanecarboxamide]: the IC50 against KRAS G12C-BRAF complex was 13 nM; in the assay on AGS cells (KRAS G12D) (Homo sapiens, 72 h), 2.4 nM; in the assay with SW620 cells (KRAS G12V) (Homo sapiens, SW-620), 0.3 nM; in assay [1] (Homo sapiens, NCI-H358, 72 h) it was 1.6 nM; in assay [2] (Homo sapiens, AGS, 4 h), 3.4 nM; in assay [3] (Homo sapiens, NCI-H358, 4 h) it was 0.9 nM. In assay [4] (Homo sapiens, SW-620, 4 h), the IC50 was 0.3 nM.
Take `CO[C@@H](C)c1ncc(N2CCN(CCC(C)(C)OC)CC2)cc1-c1c2c3cc(cc4c3n1CCC4)-c1csc(n1)C[C@H](NC(=O)[C@H]1[C@H](C)[C@@H]1C)C(=O)N1CCC[C@H](N1)C(=O)OCC(C)(C)C2` (atropisomer, axis not shown; (M)) [Example 123, (1r,2R,3S)-N-[(7S,13S)-(20M)-20-[2-[(1S)-1-methoxyethyl]-5-[4-(3-methoxy-3-methyl-butyl)piperazin-1-yl]-3-pyridyl]-17,17-dimethyl-8,14-dioxo-15-oxa-4-thia-9,21,30,31-tetrazahexacyclo[23.3.1.1^2,5.1^9,13.0^19,27.0^21,26]hentriaconta-1 (28),2,5 (31), 19,25 (29),26-hexaen-7-yl]-2,3-dimethyl-cyclopropanecarboxamide]: the IC50 at KRAS G12C-BRAF complex was found to be 13.7 nM; in the assay with AGS cells (KRAS G12D) (Homo sapiens, 72 h) it was 5.1 nM; in the assay on SW620 cells (KRAS G12V) (Homo sapiens, SW-620), 0.6 nM; in assay [1] (Homo sapiens, NCI-H358, 72 h), 3 nM; in assay [2] (Homo sapiens, AGS, 4 h), 7.1 nM; in assay [3] (Homo sapiens, NCI-H358, 4 h), 0.8 nM. Half-maximal inhibition in assay [4] (Homo sapiens, SW-620, 4 h) (IC50) was put at 0.6 nM.
Take `CO[C@@H](C)c1ncc(N2CCN(C)CC2)cc1-c1c2c3cc(c(F)c4c3n1CCC4)-c1csc(n1)C[C@H](NC(=O)[C@H]1[C@H](C)[C@@H]1C)C(=O)N1CCC[C@H](N1)C(=O)OCC(C)(C)C2` (atropisomer, axis not shown; (M)) [Example 124, (1r,2S,3R)-N-[(7S,13S)-29-fluoro-(20M)-20-[2-[(1S)-1-methoxyethyl]-5-(4-methylpiperazin-1-yl)-3-pyridyl]-17,17-dimethyl-8,14-dioxo-15-oxa-4-thia-9,21,30,31-tetrazahexacyclo[23.3.1.1^2,5.1^9,13.0^19,27.0^21,26]hentriaconta-1 (28),2,5 (31), 19,25 (29),26-hexaen-7-yl]-2,3-dimethyl-cyclopropanecarboxamide]: the IC50 at KRAS G12C-BRAF complex stood at 16.2 nM; with AGS cells (KRAS G12D) (Homo sapiens, 72 h), 13.8 nM; in the assay with SW620 cells (KRAS G12V) (Homo sapiens, SW-620), 1.6 nM; in assay [1] (Homo sapiens, NCI-H358, 72 h), 8.9 nM; in assay [2] (Homo sapiens, AGS, 4 h) it was 15.7 nM; in assay [3] (Homo sapiens, NCI-H358, 4 h), 1.4 nM. In addition, the IC50 in assay [4] (Homo sapiens, SW-620, 4 h) worked out at 0.7 nM.
As for `COC(C)c1ncc(N2CCN(C)CC2)cc1-c1c2c3cc(cc4c3n1CCO4)-c1csc(n1)CC(NC(=O)C1CC1C)C(=O)N1CCCC(N1)C(=O)OCC(C)(C)C2` [Example 17, (1S,2S)-N-[(7S,13S)-(20M)-20-[2-[(1S)-1-methoxyethyl]-5-(4-methylpiperazin-1-yl)-3-pyridyl]-17,17-dimethyl-8,14-dioxo-15,24-dioxa-4-thia-9,21,30,31-tetrazahexacyclo[23.3.1.1^2,5.1^9,13.0^19,27.0^21,26]hentriaconta-1 (28),2,5 (31),19,25 (29),26-hexaen-7-yl]-2-methyl-cyclopropanecarboxamide], the IC50 at KRAS G12C-BRAF complex is 25.4 nM; in the assay on AGS cells (KRAS G12D), 21.7 nM; with SW620 cells (KRAS G12V), 1.1 nM; in assay [1], 10.3 nM; in assay [2] (4 hours) it was 2.7 nM; in assay [3] (4 hours) it was 2.9 nM. In addition, it took 1.8 nM to reach half-maximal inhibition in assay [4] (4 hours) (IC50).
Regarding `CO[C@@H](C)c1ncc(N2CCN(C)CC2)cc1-c1c2c3cc(cc4c3n1CCO4)-c1csc(n1)C[C@H](NC(=O)C1(C)CC1(F)F)C(=O)N1CCC[C@H](N1)C(=O)OCC(C)(C)C2` (stereo partly drawn) [Example 54, 2,2-difluoro-N-[(7S,13S)-(20M)-20-[2-[(1S)-1-methoxyethyl]-5-(4-methylpiperazin-1-yl)-3-pyridyl]-17,17-dimethyl-8,14-dioxo-15,24-dioxa-4-thia-9,21,30,31-tetrazahexacyclo[23.3.1.1^2,5.1^9,13.0^19,27.0^21,26]hentriaconta-1 (29),2,5 (31), 19,25,27-hexaen-7-yl]-1-methyl-cyclopropanecarboxamide], the IC50 on KRAS G12C-BRAF complex came out at 23.3 nM; in the assay on AGS cells (KRAS G12D) (Homo sapiens, 72 h) it was 36.8 nM; in the assay with SW620 cells (KRAS G12V) (Homo sapiens, SW-620), 3 nM; in assay [1] (Homo sapiens, NCI-H358, 72 h), 12.1 nM; in assay [2] (Homo sapiens, AGS, 4 h), 8.8 nM; in assay [3] (Homo sapiens, NCI-H358, 4 h), 1.3 nM. In addition, the IC50 in assay [4] (Homo sapiens, SW-620, 4 h) was 1 nM.
For `CO[C@@H](C)c1ncc(N2CCN(C)CC2)cc1-c1c2c3cc(cc4c3n1CCO4)-c1csc(n1)C[C@H](NC(=O)C1(C)CC1C)C(=O)N1CCC[C@H](N1)C(=O)OCC(C)(C)C2` (stereo partly drawn) [Example 55, N-[(7S,13S)-(20M)-20-[2-[(1S)-1-methoxyethyl]-5-(4-methylpiperazin-1-yl)-3-pyridyl]-17,17-dimethyl-8,14-dioxo-15,24-dioxa-4-thia-9,21,30,31-tetrazahexacyclo[23.3.1.1^2,5.1^9,13.0^19,27.0^21,26]hentriaconta-1 (29),2,5 (31), 19,25,27-hexaen-7-yl]-1,2-dimethyl-cyclopropanecarboxamide], the IC50 at KRAS G12C-BRAF complex is 23.6 nM; with AGS cells (KRAS G12D) (Homo sapiens, 72 h) it was 69.1 nM; with SW620 cells (KRAS G12V) (Homo sapiens, SW-620) it was 5.6 nM; in assay [1] (Homo sapiens, NCI-H358, 72 h) it was 48.3 nM; in assay [2] (Homo sapiens, AGS, 4 h), 18.1 nM; in assay [3] (Homo sapiens, NCI-H358, 4 h), 4.9 nM. Besides, in assay [4] (Homo sapiens, SW-620, 4 h), the half-inhibitory concentration (IC50) came to 3.1 nM.
For the molecule `CO[C@@H](C)c1ncc(N2CCN(C)CC2)cc1-c1c2c3cc(cc4c3n1CCO4)-c1csc(n1)C[C@H](NC(=O)C1CC1c1ccc(F)cc1)C(=O)N1CCC[C@H](N1)C(=O)OCC(C)(C)C2` (stereo partly drawn) [Example 59, 2-(4-fluorophenyl)-N-[(7S,13S)-(20M)-20-[2-[(1S)-1-methoxyethyl]-5-(4-methylpiperazin-1-yl)-3-pyridyl]-17,17-dimethyl-8,14-dioxo-15,24-dioxa-4-thia-9,21,30,31-tetrazahexacyclo[23.3.1.1^2,5.1^9,13.0^19,27.0^21,26]hentriaconta-1 (29),2,5 (31),19,25,27-hexaen-7-yl]cyclopropanecarboxamide], the IC50 against KRAS G12C-BRAF complex turned out to be 16.7 nM; with AGS cells (KRAS G12D) (Homo sapiens, 72 h) it was 87.2 nM; in the assay with SW620 cells (KRAS G12V) (Homo sapiens, SW-620), 7.4 nM; in assay [1] (Homo sapiens, NCI-H358, 72 h) it was 33.7 nM; in assay [2] (Homo sapiens, AGS, 4 h), 21.3 nM; in assay [3] (Homo sapiens, NCI-H358, 4 h) it was 8.8 nM. The molecule also had an IC50 in assay [4] (Homo sapiens, SW-620, 4 h) of 3 nM.
For the molecule `CO[C@@H](C)c1ncc(N2CCN(CCOC3CCOC3)CC2)cc1-c1c2c3cc(cc4c3n1CCC4)-c1csc(n1)C[C@H](NC(=O)[C@H]1[C@H](C)[C@@H]1C)C(=O)N1CCC[C@H](N1)C(=O)OCC(C)(C)C2` (stereo partly drawn) [Example 122, (1r,2R,3S)-N-[(7S,13S)-(20M)-20-[2-[(1S)-1-methoxyethyl]-5-[4-(2-tetrahydrofuran-3-yloxyethyl)piperazin-1-yl]-3-pyridyl]-17,17-dimethyl-8,14-dioxo-15-oxa-4-thia-9,21,30,31-tetrazahexacyclo[23.3.1.1^2,5.1^9,13.0^19,27.0^21,26]hentriaconta-1 (28),2,5 (31), 19,25 (29),26-hexaen-7-yl]-2,3-dimethyl-cyclopropanecarboxamide], the IC50 against KRAS G12C-BRAF complex was determined as 15.1 nM; in the assay on AGS cells (KRAS G12D) (Homo sapiens, 72 h), 3.4 nM; in the assay on SW620 cells (KRAS G12V) (Homo sapiens, SW-620), 0.5 nM; in assay [1] (Homo sapiens, NCI-H358, 72 h), 1.8 nM; in assay [2] (Homo sapiens, AGS, 4 h) it was 3.5 nM; in assay [3] (Homo sapiens, NCI-H358, 4 h), 0.6 nM. The same molecule showed an IC50 in assay [4] (Homo sapiens, SW-620, 4 h) of 0.2 nM.
